Reference: a compilation of properties of binary mixtures (doi:10.1016/j.molliq.2017.06.010)
One block for each compound: values may come before it.

Assay: xn = mol fraction of the nth substance listed
Settings: 303.15 K, 100 kPa

- electrical conductivity (x2 = 0.015): 0.0004 S/m
- speed of sound (x2 = 0.015): 1522.1 m/s
- viscosity (x2 = 0.015): 16.6 mPa·s
- electrical conductivity (x2 = 0.0341): 0.0004 S/m
- speed of sound (x2 = 0.0341): 1524.3 m/s
- viscosity (x2 = 0.0341): 15.2 mPa·s
- electrical conductivity (x2 = 0.0417): 0.0004 S/m
- speed of sound (x2 = 0.0417): 1525.3 m/s
- viscosity (x2 = 0.0417): 14.7 mPa·s
- electrical conductivity (x2 = 0.0546): 0.0004 S/m
- speed of sound (x2 = 0.0546): 1526.8 m/s
- viscosity (x2 = 0.0546): 13.8 mPa·s
Structure (SMILES): CCC(=O)[O-].OCC[NH2+]c1ccccc1 + O

- electrical conductivity (x2 = 0.016): 0.0005 S/m
- speed of sound (x2 = 0.016): 1508.9 m/s
- viscosity (x2 = 0.016): 18.1 mPa·s
- electrical conductivity (x2 = 0.0386): 0.0005 S/m
- speed of sound (x2 = 0.0386): 1509.4 m/s
- viscosity (x2 = 0.0386): 16.9 mPa·s
- electrical conductivity (x2 = 0.0546): 0.0005 S/m
- speed of sound (x2 = 0.0546): 1509.8 m/s
- viscosity (x2 = 0.0546): 16.3 mPa·s
- electrical conductivity (x2 = 0.0724): 0.0005 S/m
- speed of sound (x2 = 0.0724): 1510.4 m/s
- viscosity (x2 = 0.0724): 15.4 mPa·s
Structure (SMILES): CCCC(=O)[O-].OCC[NH2+]c1ccccc1 + O
